The text below walks through data of ChEMBL document CHEMBL1134082, “Effect of zinc ion on the inhibition of carboxypeptidase A by imidazole-bearing substrate analogues” (Bioorg Med Chem Lett, 2001).

Molecules are shown by their SMILES.

One assay addresses T1, Carboxypeptidase A1 (Bos taurus, UniProt P00730).
T1 sequence (P00730 whole entry): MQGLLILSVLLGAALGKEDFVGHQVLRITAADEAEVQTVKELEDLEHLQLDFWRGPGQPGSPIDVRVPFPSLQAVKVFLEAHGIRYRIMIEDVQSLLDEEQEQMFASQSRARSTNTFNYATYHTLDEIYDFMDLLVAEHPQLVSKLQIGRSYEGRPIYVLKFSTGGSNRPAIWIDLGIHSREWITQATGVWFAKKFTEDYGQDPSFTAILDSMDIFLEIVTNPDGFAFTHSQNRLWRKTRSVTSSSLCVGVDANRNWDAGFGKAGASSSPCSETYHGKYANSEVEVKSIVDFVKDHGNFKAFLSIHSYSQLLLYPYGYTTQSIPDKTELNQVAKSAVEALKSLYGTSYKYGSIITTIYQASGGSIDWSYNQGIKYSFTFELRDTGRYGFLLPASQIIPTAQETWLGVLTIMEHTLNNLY
Kind of assay: Inhibitory constant of carboxypeptidase A (CPA) in absence of Zinc ion.

For assay [1], the target named is T2, Carboxypeptidase A1 (Bos taurus) (UniProt P00730).
T2 sequence (whole entry): T1 sequence (P00730 whole entry)
Kind of assay: Cooperative effect of the inhibitory zinc ion in the inhibition of CPA by the compound.

The target of assay [2] is T2, Carboxypeptidase A1 (Bos taurus). Description: Apparent inhibitory constant of carboxypeptidase A (CPA) in presence of Zinc ion.
The nature of assay [3]: Extent of enhancement of inhibitory potency of compound against carboxypeptidase A caused by zinc ion.

Turning to `O=C(O)C(Cc1ccccc1)Cc1c[nH]cn1` (stereo unspecified), the Ki (commonly the dissociation constant of the complex between target and ligand, obtained from inhibition or displacement) at Carboxypeptidase A1 came out at 214 µM. Also, the Cooperative effect in assay [1] was found to be 0.0047. The K'i in assay [2] is 1.01 µM. Besides, the Ki/K'i in assay [3] was found to be 212.
For the compound `O=C(O)C(CCc1c[nH]cn1)Cc1ccccc1` (stereo unspecified), on Carboxypeptidase A1, the Ki turned out to be 15 µM. This compound also showed a Cooperative effect in assay [1] of 0.0056. In addition, the K'i in assay [2] was 0.29 µM. In addition, the Ki/K'i in assay [3] was determined as 51.7.
In assay [1], `O=C(O)C(CCCc1c[nH]cn1)Cc1ccccc1` (stereo unspecified) displayed a Cooperative effect of 0.024. Besides, the K'i in assay [2] worked out at 18 µM. Further, in assay [3], the Ki/K'i is 41.7.
`O=C(O)C(CCCc1cnc[nH]1)Cc1ccccc1` (stereo unspecified) returned an inhibitory constant (Ki) on Carboxypeptidase A1 of 750 µM.
`O=C(O)C(Cc1ccccc1)c1cnc[nH]1` (stereo unspecified) displayed a Ki on Carboxypeptidase A1 of 0.26 µM.
As to `O=C(O)C(Cc1ccccc1)c1c[nH]cn1` (stereo unspecified), in assay [1], the Cooperative effect is 1.88. The K'i in assay [2] was 0.49 µM. In assay [3], the Ki/K'i turned out to be 0.53.
